From US20080033040A1, “Methods And Compositions For Screening Involving Endothelial Cells Under Shearing Conditions” (priority 2004, published 2008)
Where “and” joins values, the source holds several entries; their conditions need not be identical. Identical values can stand only once. Like-named read-outs stand apart in the source and are kept apart here.

What was measured:
PAEC [1] = experiment: L-NAME inhibition of eNOS, superoxide by DHE, static; type: cell-based, Porcine
Protocol: In order to ascertain the role of eNOS in endothelial cell superoxide production, the presence of superoxide was probed in the presence of L-NAME. […] After incubation, 2 μM DHE was added to each sample and incubated for 30 minutes. […] Image analysis was conducted with Slidebook 4 Imaging Software (company). Statistical analyses were conducted using the Student's t-Test assuming unequal variance. Values are reported as mean±standard error of the mean (SEM).

[2] = system: Porcine aortic endothelial cells (PAEC); conditions: static
PAEC [3] = experiment: Determination of intracellular superoxide by DHE, static culture (Example 2); type: cell-based, Porcine; conditions: for % of cells with fluorescent nuclei, hydrogen peroxide exposed sample with inhibitor: 60 μM H2O2; for % of cells with fluorescent nuclei, hydrogen peroxide exposed sample with inhibitor / % cells with fluorescent nuclei, control sample cultured with inhibitor: apocynin 0.25 μM; for % cells with fluorescent nuclei, control sample cultured with inhibitor: no H2O2
Protocol: Adenoviral-mediated gene transfer was conducted by infection of endothelial cells (85-95% confluence, University of Iowa Cardiovascular Research Center Cell Culture Facility) as previously described (Fang et al., 1998). Ad5CMVSOD2, Ad5CMVeNOS, and Ad5CMVeGFP were acquired from the University of Iowa Gene Transfer Vector Core (REF); Ad5CMVeGFP was used as a negative control. Porcine aortic endothelial cells were incubated with 125 PFU/cell MnSOD/eNOS/eGFP adenovirus in serum-free M199. To improve the efficiency of adenoviral uptake, the adenoviral stock was incubated for 30 minutes prior to addition to cell cultures (Kossila et al., 2002). Infected PAEC were incubated under standard conditions. After 3 hours, the virus-containing solution was removed, samples were washed with serum-free M199, and M199 supplemented with 1% Penicillin-Streptomycin and 2% FBS was added. After 45 hours of incubation (48 hours after initiation of infection) cells were prepared for experimentation.
Incubation continued for an additional 30 minutes with 2 μM dihydroethidium (Miller et al., 1998; Carter et al., 1994) (DHE, Molecular Probes). […] Images were captured using a Zeiss Axiovert S100 fluorescent microscope. Images were collected at a standard exposure of 4500 ms.
Image analysis was conducted with Slidebook 4 Imaging Software (company). Statistical analyses were conducted using the Student's t-Test assuming unequal variance. Values are reported as mean±standard error of the mean (SEM).

PAEC [4] = experiment: Nitric oxide production (Greiss assay, DAF-FM diacetate staining); type: cell-based, Porcine; conditions: H2O2 exposure, limited length of experimentation
Excerpt: Nitric oxide production was quantified via Greiss assay and intracellular staining with DAF-FM diacetate.

PAEC [5] = conditions: 500 μM H2O2, 1 hour
Protocol: PAEC were cultured and infected as previously described. Forty-eight hours after infection, PAEC were incubated for 1 hour under 500 μM H2O2 in serum-free M199; control groups were incubated in serum-free M199. […] After incubation, 3 μM propidium iodide (PI) was added to each sample and incubated for 8 minutes. Samples were then washed with serum-free M199 and imaged at an exposure of 2500 ms. All fluorescent images were acquired in phenyl-red free media.

PAEC [6] = type: cell-based, Porcine
Protocol: An Immunetics cell adhesion chamber (Cambridge, Mass.) was utilized to determine PAEC behavior under shearing conditions. […] PAEC were exposed to a constant flow rate of 24.4 ml/min (2.2 dynes/cm^2) for 1.5 hours. Maintenance of PAEC at 37° C. was achieved by using a fluid reservoir contained in a constant temperature water bath (Precision). Challenged PAEC were exposed to 100 μM H2O2 in serum-free and phenyl red free M199; control PAEC were exposed to serum-free and phenyl red free M199 without H2O2.
After 1 hour of incubation, 2 μM dihydroethidium was added to the media reservoir.
Hydroethidium was used to examine superoxide production of infected and non-infected PAEC under H2O2 induced oxidative stress. PAEC on glass slides were subjected to laminar flow at 24.4 ml/min (2 dynes/cm^2). The circulating fluid contained 2 μM dihydroethidium as a marker for superoxide production.

[7] = system: Porcine aortic endothelial cells (PAEC); conditions: shear 24.4 ml/min (2.2 dynes/cm2), 100 μM H2O2, 1.5 hours
Protocol: The flow system provided for oscillatory, laminar flow across the sample. […] Due to these factors, an increase in concentration to 100 μM H2O2 was necessary for experimentation under shearing conditions.
An Immunetics flow cell (Li et al., 1996) was prepared by first flushing the fluid path with deionized water and then phenyl red free M199. After flushing, 50 ml of the circulating medium was added and allowed to perfuse for 5 minutes while warming to 37° C. PAEC were then placed in the flow cell and the flow cell was secured to the microscope stage. Endothelial cells were maintained at 37° C. by fluid flow through a water bath (Precision, Winchester, Va.), at a flow rate of 24.4 ml/min (2.2 dynes/cm2), for 1.5 hours under 100 μM H2O2 in circulating medium. The PAEC not exposed to H2O2 were subjected to the same flow rate in serum free and phenyl red free M199 without H2O2. […] The experiment was conducted under constant imaging, with images being captured at 0, 15, 30, 60, and 90 minutes. […] All fluorescent images were acquired with phenyl red free media to eliminate interference of phenyl red and FBS in fluorescent imaging.

PAEC [8] = experiment: Determination of eNOS couple state with ascorbic acid, superoxide by DHE, static; type: cell-based, Porcine; conditions: 60 μM H2O2, 1 mM ascorbic acid
Protocol: In order to ascertain the role of the coupled state of eNOS in endothelial cell superoxide production, the presence of superoxide was probed in the presence of ascorbic acid. […] After incubation, 2 μM DHE was added to each sample and incubated for 30 minutes.

## OO [H2O2, hydrogen peroxide]
PAEC [1]; 60 μM H2O2, no L-NAME
  % cells with fluorescent nuclei, challenged non-inhibited group: 23.8±3.8%
[2]; 3 μM H2O2, 1.5 hour exposure, 2.0 μM DHE
  % of PAEC exposed to H2O2 demonstrating intracellular superoxide: 1.2±0.2%
[2]; 30 μM H2O2, 1.5 hour exposure, 2.0 μM DHE
  % of PAEC found to produce intracellular superoxide: 77.1±5.5%
[2]; 1 mM H2O2
  % of PAEC exhibiting fluorescent nuclei: 76.1±6.8%
[2]; increasing H2O2 concentration, most notably at 1 mM
  cell membrane integrity of PAEC: loss in cell membrane integrity in a dose dependant manner
PAEC [3]; static culture
  fold increase in percent of superoxide producing cells, control vs H2O2 stressed: 10 fold
PAEC [3]; static, H2O2 challenged PAEC (60 μM H2O2)
  % of cells having fluorescent nuclei: 51.8±1.1%
PAEC [4]
  NO production (DAF-AM acetate intracellular staining): no significant increases
PAEC [5]
  percent of cells with ruptured cellular membranes: ten
  percent propidium iodide positive cells, challenged PAEC: more than ninety
PAEC [6]
  % of cells with fluorescent nuclei, challenged PAEC (non-infected): 50.3±4.1%
  fold increase in percent of superoxide producing cells, non-infected control vs H2O2 stressed: 30 fold
[7]
  % of PAEC exposed to H2O2 demonstrating intracellular superoxide: 49.5±3.3%

## COC(=O)[C@@H](N)CCCNC(=N)N[N+](=O)[O-] [L-NAME, N^G-nitro-L-arginine methyl ester]
PAEC [1]; no H2O2, 1 mM L-NAME
  % cells with fluorescent nuclei, control with eNOS inhibition: 2.2±0.5% and 2.9±0.3%

## Oc1ncnc2[nH]ncc12 [allopurinol]
PAEC [3]; static
  % of cells with fluorescent nuclei, hydrogen peroxide exposed sample with inhibitor: 35.6±1.3%
  % cells with fluorescent nuclei, control sample cultured with inhibitor: 4.1±0.4%

## COc1cc(C(C)=O)ccc1O [apocynin, Apocynin]
PAEC [3]; apocynin 0.5 mM
  effect on superoxide production: minimal effects
PAEC [3]; static
  % of cells with fluorescent nuclei, hydrogen peroxide exposed sample with inhibitor: 35.1±2.0%
  % cells with fluorescent nuclei, control sample cultured with inhibitor: 14.2±1.3%

## O=C1O[C@H]([C@@H](O)CO)C(O)=C1O [ascorbic acid, Ascorbic Acid]
PAEC [8]
  superoxide production in presence of ascorbic acid: almost completely inhibited

## CC(C(=O)O)c1ccc(-c2ccccc2)c(F)c1 (stereo not shown) [flurbiprofen]
PAEC [3]; static
  % of cells with fluorescent nuclei, hydrogen peroxide exposed sample with inhibitor: 46.8±1.4%
  % cells with fluorescent nuclei, control sample cultured with inhibitor: 3.9±0.4%
